≈ marks a conversion by molar mass, not a printed value. Read-outs that look alike come from different tables or passages of the source. Marks after values point to notes of the source that are not given here. Where a SMILES comes first, the peptide text is derived from it. Bridges are numbered along the chain shown (N, C = ends). Where no end group is shown, it is not given here. The star is where a group is joined. Acm = CC(=O)NC*
How the values were obtained:
Assay type in all cases: cell-based
[1] = tested on: E. coli ATCC 25922; settings: for MIC: ATCC 25922, 24 h; for MIC E. coli 25922 Expt. #1 / MIC E. coli 25922 Expt. #2: ATCC 25922
Procedure: (§1) The minimal inhibitory concentration (MIC) for the peptides was determined in sterile microtiter plates in a final volume of 200 μL using Trypticase Soy Broth (TSB; Difco Laboratories, Detroit, Mich.) as the growth medium. Serial two-fold dilutions of the peptide stock were made in the plate wells such that concentrations ranged from 512 to 2 μg/mL in a volume of 100 μL. Each well was then inoculated with 100 μL of a dilute suspension of bacteria in TSB yielding a final concentration of 1×10^4 bacteria/mL. The final peptide concentrations ranged from […]. The assay plates were incubated at 37° C. for 24 hours inside a Bioscreen C microtitre plate reader (Thermo Labsystems; Vantaa, Finland). Optical Density (OD) of the medium at 600 nm was recorded every 20 minutes to monitor cell growth. The lowest concentration of peptide preventing bacterial growth during the 24 hr period was defined as the MIC.

[2] = tested on: P. aeruginosa 27853
Procedure: as §1

[3] = tested on: S. aureus 29213
Procedure: as §1

[4] = tested on: K. pneumoniae 700603
Procedure: as §1

[5] = tested on: E. coli ATCC #25922; settings: ATCC #25922, 4 h
Procedure: Antimicrobial activity of the peptide immobilized on polymer substrates was evaluated in a Shake Flask Test. Test substance (polymer with immobilized peptide) or control substance (polymer alone) (50 mg suspended in […] phosphate buffer (pH 7)) was added to a sterile culture plate well; a dilute suspension of bacteria (1×10^5 cells/mL final concentration in the well) in 0.6 mM phosphate buffer was added to the well for a final volume of 5 mL. The plate was shaken on a platform shaker at room temperature. At specified times (4 hours and 24 hours), an aliquot was removed from the culture plate (0.1 mL, in triplicates), and serial dilutions ranging from 1 to 100 fold were made for enumeration of cells on trypticase soy agar (TSA) plates. The TSA plates were incubated for 20 hr at 37° C., and the number of colony forming units (CFU) per mL was determined.

Row | Compound | MIC [1] | MIC E. coli 25922 Expt. #1 [1] | MIC E. coli 25922 Expt. #2 [1] | MIC P. aeruginosa 27853 [2] | MIC S. aureus 29213 [3]; 29213 | MIC K. pneumoniae 700603 [4] | log reduction in E. coli CFU/mL [5] | MIC S. aureus 29213 ([3]; ATCC 29213)
1 | CC(=O)NCSC[C@H](NC(=O)[C@H](CC(C)C)NC(=O)[C@H](CCCCN)NC(=O)[C@H](CC(C)C)NC(=O)[C@H](CC(C)C)NC(=O)[C@H](CCCCN)NC(=O)[C@H](CCCCN)NC(=O)[C@H](CC(C)C)NC(=O)CNC(=O)[C@H](CCCCN)NC(=O)[C@H](CC(C)C)NC(=O)[C@H](CC(C)C)NC(=O)[C@H](CCCCN)NC(=O)[C@H](CCCCN)NC(=O)[C@H](CC(C)C)NC(=O)[C@@H](N)CSCNC(C)=O)C(=O)O [SEQ ID NO:25, CLKKLLKGLKKLLKLC] (H-C(Acm)LKKLLKGLKKLLKLC(Acm)-OH; N-terminus and C-terminus assumed) | 8 µg/mL (≈ 4.03 µM) | – | – | – | – | – | – | –
2 | CC(C)C[C@@H]1NC(=O)CNC(=O)[C@H](CCCCN)NC(=O)[C@H](CC(C)C)NC(=O)[C@H](CC(C)C)NC(=O)[C@H](CCCCN)NC(=O)[C@H](CCCCN)NC(=O)[C@H](CC(C)C)NC(=O)[C@@H](NC(=O)[C@@H](N)CCCCN)CSSC[C@@H](C(=O)O)NC(=O)[C@H](CC(C)C)NC(=O)[C@H](CCCCN)NC(=O)[C@H](CC(C)C)NC(=O)[C@H](CC(C)C)NC(=O)[C@H](CCCCN)NC(=O)[C@H](CCCCN)NC1=O [SEQ ID NO:31] (H-KCLKKLLKGLKKLLKLC-OH; disulfide 2-17; N-terminus and C-terminus assumed) | 16 µg/mL (≈ 8.13 µM) | – | – | – | – | – | – | –
3 | CC(C)C[C@@H]1NC(=O)CNC(=O)[C@H](CCCCN)NC(=O)[C@H](CC(C)C)NC(=O)[C@H](CC(C)C)NC(=O)[C@H](CCCCN)NC(=O)[C@H](CCCCN)NC(=O)[C@H](CC(C)C)NC(=O)[C@@H](N)CSSC[C@@H](C(=O)O)NC(=O)[C@H](CC(C)C)NC(=O)[C@H](CCCCN)NC(=O)[C@H](CC(C)C)NC(=O)[C@H](CC(C)C)NC(=O)[C@H](CCCCN)NC(=O)[C@H](CCCCN)NC1=O [SEQ ID NO:38] (H-CLKKLLKGLKKLLKLC-OH; disulfide 1-16; N-terminus and C-terminus assumed) | 32 µg/mL (≈ 17.4 µM) | – | – | – | – | – | – | –
4 | CC(=O)NCSC[C@H](NC(=O)[C@H](CC(C)C)NC(=O)[C@H](CCCCN)NC(=O)[C@H](CC(C)C)NC(=O)[C@H](CC(C)C)NC(=O)[C@H](CCCCN)NC(=O)[C@H](CCCCN)NC(=O)[C@H](CC(C)C)NC(=O)CNC(=O)[C@H](CCCCN)NC(=O)[C@H](CC(C)C)NC(=O)[C@H](CC(C)C)NC(=O)[C@H](CCCCN)NC(=O)[C@H](CCCCN)NC(=O)[C@H](CC(C)C)NC(=O)[C@H](CSCNC(C)=O)NC(=O)[C@@H](N)CCCCN)C(=O)O [compound 17, KC(Acm)LKKLLKGLKKLLKLC(Acm)] (H-KC(Acm)LKKLLKGLKKLLKLC(Acm)-OH; N-terminus and C-terminus assumed) | 4 µg/mL (≈ 1.89 µM) | – | – | – | – | – | – | –
5 | KGGKKLLKGLKKLLKL [SEQ ID NO:43, KGGKKLLKGLKKLLKL] | – | <=4* μg/mL | 2 µg/mL | 16 µg/mL | 256 µg/mL | 64 µg/mL | – | –
6 | KGLKKGLKGLKKLLKL [SEQ ID NO:40, KGLKKGLKGLKKLLKL] | 256 µg/mL | – | – | – | – | – | – | –
7 | KGLKKGLKLLKKLLKL [SEQ ID NO:2, KGLKKGLKLLKKLLKL] | – | <=4* μg/mL | 2 µg/mL | 8 µg/mL | 64 to 128 µg/mL | 4 to 8 µg/mL | – | –
8 | KGLKKLGKLLKKLLKL [SEQ ID NO:42, KGLKKLGKLLKKLLKL] | – | <=4* μg/mL | 2 µg/mL | 8 to 16 µg/mL | 64 µg/mL | 4 to 8 µg/mL | – | –
9 | KGLKKLLKGLKKLLKL [SEQ ID NO:1, KGLKKLLKGLKKLLKL] | 4 µg/mL | – | 2 to 4 µg/mL | 2 µg/mL | 8 µg/mL | 8 to 16 µg/mL | 4.6 log | –
10 | KGLKKLLKLGKKLLKL [SEQ ID NO:3, KGLKKLLKLGKKLLKL] | – | <=4* μg/mL | 2 µg/mL | 8 µg/mL | 64 to 128 µg/mL | 8 µg/mL | – | –
11 | KGLKKLLKLLKKGLKL [SEQ ID NO:5, KGLKKLLKLLKKGLKL] | – | <=4* μg/mL | 2 µg/mL | 8 µg/mL | – | 8 to 16 µg/mL | – | 32+ μg/mL

Source: patent US7550430B2, “Cationic antimicrobial peptides and compositions” (E.I. du Pont de Nemours and Company, priority 2003, dated 2009)
